Laboratory results taken from US4719048A, “Crysene compound” (Burroughs Wellcome Co., priority 1984, dated 1988).
Structures can show the parent of a compound that is named as a salt.

Key:
[1] = test system: P388/0 tumor cells (lymphocytic leukemia); experiment: Lymphocytic Leukemia P388/0 Test (survival of tumor-bearing mice); type: in vivo, mouse (CD2-F1); conditions: ip, days 1, 5, 9; at optimal dose (mg/kg): 1B 121; 1C 115; 2 100; 3 100; 6G 65; 18B 88; 19H 110; 6H 60; 7 110; 9 300; 10B 1013; 11C 150; 12G 90; 5F 225; 13D 303; 14 196; 15B 250; 16 1012; 4B 180; active if ≥120%
Source text: (§1) Methods for evaluating the antitumor activity of these compounds are essentially those used in the Tumor Panel by the Developmental Therapeutics Program, Division of Cancer Treatment, National Cancer Institute, A. Goldin, et al., Methods in Cancer Research, Vol. XVI, p. 165, Academic Press (1979). Some modifications, in dose level and schedule have been made to increase the testing efficiency.
(§2) CD2-F1 mice, of the same sex, weighing 20±3 g, are used for this test. Control and test animals are injected intraperitoneally with a suspension of ~10^6 viable P388/0 tumor cells on day 0. In each test, several dose levels which bracket the LD20 of the compound are evaluated; each dose level group contains six animals. The test compounds are prepared either in physiologic saline containing 0.05% Tween 80 or distilled water containing 5% dextrose and are administered intraperitoneally on days 1, 5, and 9 relative to tumor implant. Doses are on a mg/kg basis according to individual animals' body weights. The day of death for each animal is recorded, the median identified for each group and the ratios of median survival time for treated (T)/control (C) groups are calculated. The criterion for activity is T/C×100≥120%.

LD20 in the P388/0 test = type: in vivo, mouse (CD2-F1); conditions: ip, days 1, 5 and 9
Method: as §2
^A Values in parentheses are the highest nontoxic dose where the
LD20 was not determined.

B16 melanoma cells = experiment: Melanotic Melanoma B16 test (survival); type: in vivo, mouse (B6C3-F1); conditions: B16 ip; drug ip days 1, 5, 9; dose (mg/kg): 1C 100; 6G 50; 3 70; 2 75; 18B 70; active if >125%
Source text: as §1
B6C3-F1 mice of the same sex, weighing 20±3 g, are used for this test. A suspension of B16 cells is prepared from a non-necrotic portion of solid tumor tissue obtained from a passage mouse. One gram of tumor is homogenized in 9 mL ice-cold Earle's salts solution and filtered through 1000 mesh screen to remove debris. 0.5 mL of the resulting brei is injected intraperitoneally into each animal. Dosing is carried out as in the P388/0 and L1210 tests. Days of death are recorded for a 60 day period and T/C ratio calculated as in the P388/0 and L1210 tests. The criterion for activity is T/C×100>125%.

Colon 38 carcinoma = experiment: Colon 38 Carcinoma Test (tumor weight); type: in vivo, mouse (tumor from C57B1/6); conditions: ip, days 1, 5, 9; dose 120 mg/kg; day 20; active if ≤42%
Source text: as §1
This chemically-induced tumor arose in a C57B1/6 mouse and is maintained as a solid tumor in that mouse strain. The subcutaneously growing solid tumor is aseptically excised from passage mice and placed in sterile saline. The tumor is trimmed free of visible necrotic and connective tissue, then divided into 2-3 mm cubes. A cube is implanted subcutaneously in the ventral thoracic region with a sterile trochar on day 0. In each test several dose levels which bracket the LD20 for the compound are evaluated. Ten animals are included in each dose level group and thirty animals in the untreated control group. The test compounds are prepared either in physiologic saline containing 0.05% Tween 80 or distilled water containing 5% dextrose and are administered intraperitoneally on days 1, 5 and 9 after tumor implant. […] At day 20, the animals are sacrificed and the longest (L) and shortest (W) dimensions of each tumor measured with vernier calipers. Tumor weight is calculated from the formula [formula] […]

SMILES: C[C@@H](O)C(C)(NCc1cc2c3ccccc3ccc2c2ccccc12)[C@@H](C)O (relative stereo) [Example 5F]
- T/C × 100% (Excluding 30 Day Survivors), median survival time treated/control [1]: +255%

SMILES: C[C@H](O)[C@@](C)(CO)NCc1cc2c3ccccc3ccc2c2ccccc12 (relative stereo) [Example 6G, (+-)(2R*,3S*)-2-((6-chrysenylmethyl)amino)-2-methyl-1,3-butanediol hydrochloride.1/3H2 O]
- T/C × 100% (Excluding 30 Day Survivors), median survival time treated/control [1]: +245%
- LD20 (LD20 in the P388/0 test): 53 mg/kg
- T/C × 100% Excluding 60 day Survivors (B16 melanoma cells): +160%

SMILES: CS(=O)(=O)O.C[C@H](O)[C@@](C)(CO)NCc1cc2c3ccccc3ccc2c2ccccc12 (relative stereo) [Example 6H, (+-)(2R*,3S*)-2-((6-chrysenylmethyl)amino)-2-methyl-1,3-butanediol methanesulfonate]
- T/C × 100% (Excluding 30 Day Survivors), median survival time treated/control [1]: +235%
- LD20 (LD20 in the P388/0 test): 60 mg/kg

SMILES: C[C@@H](O)[C@@](C)(CO)NCc1cc2c3ccccc3ccc2c2ccccc12.Cl (relative stereo) [Example 7, (+-)-(2R*,3R*)-2-((6-chrysenylmethyl)amino)-2-methyl-1,3-butanediol hydrochloride]
- T/C × 100% (Excluding 30 Day Survivors), median survival time treated/control [1]: +285%
- LD20 (LD20 in the P388/0 test): 100 mg/kg

SMILES: CC(CO)(CO)NCc1cc2c3ccccc3ccc2c2ccccc12.Cl [Example 1B, 2-((6-chrysenylmethyl)amino)-2-methyl-1,3-propanediol hydrochloride]
- LD20 (LD20 in the P388/0 test): 140 mg/kg

SMILES: CC(CO)(CO)NCc1cc2c3ccccc3ccc2c2ccccc12 [Example 1C, 2-((6-chrysenylmethyl)amino)-2-methyl-1,3-propanediol methanesulfonate]
- T/C × 100% (tumor weight) (Colon 38 carcinoma): 36%

SMILES: Cl.OCC(CO)(CO)NCc1cc2c3ccccc3ccc2c2ccccc12 [Example 2, 2-((6-chrysenylmethyl)amino)-2-hydroxymethyl-1,3-propanediol hydrochloride]
- LD20 (LD20 in the P388/0 test): 100 mg/kg

SMILES: CCC(CO)(CO)NCc1cc2c3ccccc3ccc2c2ccccc12.Cl [Example 3, 2-((6-chrysenylmethyl)amino)-2-ethyl-1,3-propanediol hydrochloride]
- LD20 (LD20 in the P388/0 test): 100 mg/kg

SMILES: CC(CO)(CO)NCc1cc2c3ccccc3c(Cl)cc2c2ccccc12 [Example 4B, 2-(((12-chloro-6-chrysenyl)methyl)amino)-2-methyl-1,3-propanediol methanesulfonate.1/3H2 O]
- T/C × 100% (Excluding 30 Day Survivors), median survival time treated/control [1]: +155%
- LD20 (LD20 in the P388/0 test): 180 mg/kg

SMILES: COCC(C)(CO)NCc1cc2c3ccccc3ccc2c2ccccc12.Cl (stereo not drawn) [Example 9D, 3-methoxy-2-((6-chrysenylmethyl)amino)-2-methyl-1-propanol hydrochloride]
- T/C × 100% (Excluding 30 Day Survivors), median survival time treated/control [1]: +181%

SMILES: O[C@@H]1CCC[C@H](O)[C@H]1NCc1cc2c3ccccc3ccc2c2ccccc12 [Example 10B, (1α,2β,3α)-2-((6-chrysenylmethyl)amino)-1,3-cyclohexanediol hydrochloride]
- T/C × 100% (Excluding 30 Day Survivors), median survival time treated/control [1]: +205%

SMILES: CC(C)C(CO)(CO)NCc1cc2c3ccccc3ccc2c2ccccc12 [Example 11C, 2-((6-chrysenylmethyl)amino)-2-isopropyl-1,3-propanediol hydrochloride.H2 O]
- LD20 (LD20 in the P388/0 test): 150 mg/kg

SMILES: CC(CO)(CCO)NCc1cc2c3ccccc3ccc2c2ccccc12 (stereo not drawn) [Example 12G, 2-((6-chrysenylmethyl)amino)-2-methyl-1,4-butanediol hydrochloride.1/3EtOH]
- LD20 (LD20 in the P388/0 test): 90 mg/kg

SMILES: CS(=O)(=O)O.C[C@H](O)C(NCc1cc2c3ccccc3ccc2c2ccccc12)[C@@H](C)O (stereo partly drawn) [Example 13D, meso-3-((6-chrysenylmethyl)amino)-2,4-pentanediol methanesulfonate]
- T/C × 100% (Excluding 30 Day Survivors), median survival time treated/control [1]: +200%

SMILES: OCC(CO)NCc1cc2c3ccccc3ccc2c2ccccc12 [Example 14, 2-((6-chrysenylmethyl)amino)-1,3-propanediol methanesulfonate]
- LD20 (LD20 in the P388/0 test): 160 mg/kg

SMILES: CCc1cc2c3ccccc3c(CNC(C)(CO)CO)cc2c2ccccc12 [Example 15B, 2-(((12-ethyl-6-chrysenyl)methyl)amino)-2-methyl-1,3-propanediol methanesulfonate]
- LD20 (LD20 in the P388/0 test): 150 mg/kg

SMILES: CC(=O)OCC(C)(COC(C)=O)NCc1cc2c3ccccc3ccc2c2ccccc12 [Example 16, 2-((6-chrysenylmethyl)amino)-2-methyl-1,3-propanediol diacetate]
- T/C × 100% (Excluding 30 Day Survivors), median survival time treated/control [1]: +145%

SMILES: CC(C)(CO)NCc1cc2c3ccccc3ccc2c2ccccc12.Cl [Example 18B, 2-((6-chrysenylmethyl)amino)-2-methyl-1-propanol hydrochloride]
- LD20 (LD20 in the P388/0 test): 80 mg/kg

SMILES: CC(CO)(CO)NCc1ccc2ccc3c4ccccc4ccc3c2c1 [Example 19H, 2-((3-chrysenylmethyl)amino)-2-methyl-1,3-propanediol methanesulfonate]
- LD20 (LD20 in the P388/0 test): 150 mg/kg
